The values below come from patent US7186714B2, “Imidazo[1,2-α]pyridine derivatives for the prophylaxis and treatment of herpes viral infections” (SmithKline Beecham Corporation, priority 2001, dated 2007).

The subject of the test is HSV-1. The test is described as follows: HSV infection of Vero 76 cells, viral DNA detected by hybridization capture with chemiluminescence. Type of test: cell-based. The conditions noted are these: Human alphaherpesvirus 1; HSV-1 in Vero 76 cells, MOI=0.001, incubated 40–48 hours with test compound. The procedure:
Vero 76 cells were maintained in MEM with Earle's salts, L-glutamine, 8% FBS (Hyclone, A-1111-L) and 100 units/mL Penicillin-100 μg/mL Streptomycin. For assay conditions, FBS was reduced to 2%. Cells are seeded into 96-well tissue culture plates at a density of 5×10^4 cells/well after being incubated for 45 min at 37° C. in the presence of HSV-1 or HSV-2 (MOI=0.001). Test compounds are added to the wells and the plates are incubated at 37° C. for 40–48 hours. Cell lysates are prepared as follows: media was removed and replaced with 150 μL/well 0.2 N NaOH with 1% Igepal CA 630 or NP-40. Plates were incubated up to 14 days at room temperature in a humidified chamber to prevent evaporation.
For the detection probe, a gel-purified, digoxigenin-labeled, 710-bp PCR fragment of the HSV UL-15 sequence was utilized. PCR conditions included 0.5 μM primers, 180 μM dTTP, 20 μM dUTP-digoxigenin (Boehringer Mannheim 1558706), 200 μM each of dATP, dCTP, and dGTP, 1×PCR Buffer II (Perkin Elmer), 2.5 mM MgCl2, 0.025 units/μL of AmpliTaq Gold polymerase (Perkin Elmer), and 5 ng of gel-purified HSV DNA per 100 μL Extension conditions were 10 min at 95° C., followed by 30 cycles of 95° C. for 1 min, 55° C. for 30 sec, and 72° C. for 2 min. The amplification was completed with a 10-min incubation at 72° C. Primers were selected to amplify a 728 bp probe spanning a section of the HSV1 UL15 open reading frame (nucleotides 249–977). Single-stranded transcripts were purified with Promega M13 Wizard kits. The final product was mixed 1:1 with a mixture of 6 M GuSCN, 100 mM EDTA and 200 μg/mL herring sperm DNA and stored at 4° C.
The capture DNA plasmid (HSV UL13 region in pUC) was linearized by cutting with XbaI, denatured for 15 min at 95° C. and diluted immediately into Reacti-Bind DNA Coating Solution (Pierce, 17250, diluted 1:1 with TE buffer, pH 8) at 1 ng/μL 75 μL/well were added to Corning (#3922 or 9690) white 96-well plates and incubated at room temperature for at least 4 hrs before washing twice with 300 μL/well 0.2×SSC/0.05% Tween-20 (SSC/T buffer). The plates were then incubated overnight at room temperature with 150 μL/well 0.2 N NaOH, 1% IGEPAL and 10 μg/mL herring sperm DNA.
Twenty-seven (27) μL of cell lysate was combined with 45 μL of hybridization solution (final concentration: 3M GuSCN, 50 mM EDTA, 100 μg/ml salmon sperm DNA, 5×Denhardt's solution, 0.25×APE, and 5 ng of the digoxigenin-labeled detection probe). APE is 1.5 M NH4-acetate, 0.15 M ammonium phosphate monobasic, and 5 mM EDTA adjusted to pH 6.0. Mineral oil (50 μL) was added to prevent evaporation. The hybridization plates were incubated at 95° C. for 10 minutes to denature the DNA, then incubated at 42° C. overnight. The wells were washed 6× with 300 μL/well SSC/T buffer then incubated with 75 μL/well anti-digoxigenin-HRP-conjugated antibody (Boehringer Mannheim 1207733, 1:5000 in TE) for 30 min at room temperature. The wells were washed 6× with 300 μL/well with PBS/0.05% Tween-20 before 75 μL/well SuperSignal LBA substrate (Pierce) was added. The plates were incubated at room temperature for 30 minutes and chemiluminescence was measured in a Wallac Victor reader.
Take `Cc1cc(Br)cn2c(-c3ccnc(NC4CCCC4)n3)c(-c3ccc(F)cc3)nc12` [Example 44, N-{4-[6-Bromo-2-(4-fluorophenyl)-8-methylimidazo[1,2-a]pyridin-3-yl]-2-pyrimidinyl}-N-cyclopentylamine]: 1200 nM corresponded to half-maximal inhibition (IC50).
With `N#Cc1ccc(-c2nc3c(NC4CCCC4)cccn3c2-c2ccnc(NC3CCCC3)n2)cc1` [Example 26, 4-{8-(Cyclopentylamino)-3-[2-(cyclopentylamino)-4-pyrimidinyl]imidazo[1,2-α]pyridin-2-yl}benzonitrile] the figure was 310 nM.
`Fc1ccc(-c2nc3c(Cl)cccn3c2-c2ccnc(NC3CCCC3)n2)cc1` [Example 2, 4-[8-Chloro-2-(4-fluorophenyl)imidazo[1,2-α]pyridin-3-yl]-N-cyclopentyl-2-pyrimidinamine] displayed an IC50 of 3900 nM.
Compound `CNc1nccc(-c2c(-c3ccc(F)cc3)nc3c(Cl)cccn23)n1` [Example 7, 4-[8-Chloro-2-(4-fluorophenyl)imidazo[1,2-α]pyridin-3-yl]-N-methyl-2-pyrimidinamine] registered an IC50 of 2400 nM.
The compound `Fc1ccc(-c2nc3c(NC4CCCC4)cc(Cl)cn3c2-c2ccnc(NC3CCCC3)n2)cc1` [Example 39, N-{4-[6-Chloro-8-(cyclopentylamino)-2-(4-fluorophenyl)imidazo[1,2-α]pyridin-3-yl]-2-pyrimidinyl}-N-cyclopentylamine] came in with an IC50 of 1400 nM.
The compound `Fc1ccc(-c2nc3c(N4CCCC4)cccn3c2-c2ccnc(NC3CCCC3)n2)cc1` [Example 4, N-Cyclopentyl-4-[2-(4-fluorophenyl)-8-(1-pyrrolidinyl)imidazo[1,2-α]pyridin-3-yl]-2-pyrimidinamine] registered an IC50 of 1400 nM.
The compound `NC(=O)c1ccc(-c2nc3c(NC4CCCC4)cccn3c2-c2ccnc(NC3CCCC3)n2)cc1` [Example 29, 4-{8-(Cyclopentylamino)-3-[2-(cyclopentylamino)-4-pyrimidinyl]imidazo[1,2-α]pyridin-2-yl}benzamide] gave an IC50 of over 5000 nM.
With `COCCNc1cccn2c(-c3ccnc(NC4CCCC4)n3)c(-c3ccc(F)cc3)nc12` [Example 6, 3-[2-(Cyclopentylamino)-4-pyrimidinyl]-2-(4-fluorophenyl)-N-(2-methoxyethyl)imidazo[1,2-α]pyridin-8-amine] the figure was 340 nM.
With `Fc1ccc(-c2nc3c(Br)cc(Br)cn3c2-c2ccnc(NC3CCCC3)n2)cc1` [Example 40, N-Cyclopentyl-4-[6,8-dibromo-2-(4-fluorophenyl)imidazo[1,2-a]pyridin-3-yl]-2-pyrimidinamine] the figure was 790 nM; with `CNc1nccc(-c2c(-c3ccc(F)cc3)nc3c(NC4CCCC4)cccn23)n1` [Example 8, N-Cyclopentyl-2-(4-fluorophenyl)-3-[2-(methylamino)-4-pyrimidinyl]imidazo[1,2-α]pyridin-8-amine], over 5000 nM.
In the case of `COc1ccc(-c2nc3c(NC4CCCC4)cccn3c2-c2ccnc(NC3CCCC3)n2)cc1` [Example 10, N-Cyclopentyl-3-[2-(cyclopentylamino)-4-pyrimidinyl]-2-(4-methoxyphenyl)imidazo[1,2-α]pyridin-8-amine], the midpoint of inhibition, the IC50, lay at 1750 nM.
Take `CCCCNc1cccn2c(-c3ccnc(NC4CCCC4)n3)c(-c3ccc(F)cc3)nc12` [Example 5, N-Butyl-3-[2-(cyclopentylamino)-4-pyrimidinyl]-2-(4-fluorophenyl)imidazo[1,2-α]pyridin-8-amine]: it took 650 nM to reach half-maximal inhibition (IC50).
With `c1cc(-c2nc3c(NC4CCCC4)cccn3c2-c2ccnc(NC3CCCC3)n2)cc(N(CC2CC2)CC2CC2)c1` [Example 35, 2-{3-[Bis(cyclopropylmethyl)amino]phenyl}-N-cyclopentyl-3-[2-(cyclopentylamino)-4-pyrimidinyl]imidazo[1,2-α]pyridin-8-amine] the figure was 1460 nM; with `c1cc(NCC2CC2)cc(-c2nc3c(NC4CCCC4)cccn3c2-c2ccnc(NC3CCCC3)n2)c1` [Example 34, N-Cyclopentyl-3-[2-(cyclopentylamino)-4-pyrimidinyl]-2-{3-[(cyclopropylmethyl)amino]phenyl}imidazo[1,2-α]pyridin-8-amine], 1500 nM.
